Measurements reported in patent US20080051429A1, “USE OF 4-AMINO-PIPERIDINES FOR TREATING SLEEP DISORDERS” (priority 2006, published 2008).
Like-named read-outs stand apart in the source and are kept apart here.

Key:
5-HT2A receptor = molecular target: T1, 5-HT2A receptor (Homo sapiens, UniProt P28223); assay: R-SAT functional receptor assay; type: cell-based; details: for EC50: agonist
T1 construct: expressed in transfected cells; host or cells: NIH3T3 cells, pSI expression vector

healthy volunteers = assay: Clinical safety evaluation; type: in vivo, human
Procedure: Safety: 3-positional vital signs, ECGs, body temperature, and respiratory rates as well as blood chemistries, hematology, and urinalysis served as safety measures. Safety measures were assessed at screening, baseline (Day −1), Day 1, Day 2, Day 13, and Day 14. Any observed or reported adverse events were recorded. Blood samples were taken on Day −1 (baseline) and on Day 14 (steady state). Two weeks after the termination of treatment administration (Day 28), an end-of-study visit was conducted, and included a clinical safety evaluation.

T1 sequence (P28223 whole entry): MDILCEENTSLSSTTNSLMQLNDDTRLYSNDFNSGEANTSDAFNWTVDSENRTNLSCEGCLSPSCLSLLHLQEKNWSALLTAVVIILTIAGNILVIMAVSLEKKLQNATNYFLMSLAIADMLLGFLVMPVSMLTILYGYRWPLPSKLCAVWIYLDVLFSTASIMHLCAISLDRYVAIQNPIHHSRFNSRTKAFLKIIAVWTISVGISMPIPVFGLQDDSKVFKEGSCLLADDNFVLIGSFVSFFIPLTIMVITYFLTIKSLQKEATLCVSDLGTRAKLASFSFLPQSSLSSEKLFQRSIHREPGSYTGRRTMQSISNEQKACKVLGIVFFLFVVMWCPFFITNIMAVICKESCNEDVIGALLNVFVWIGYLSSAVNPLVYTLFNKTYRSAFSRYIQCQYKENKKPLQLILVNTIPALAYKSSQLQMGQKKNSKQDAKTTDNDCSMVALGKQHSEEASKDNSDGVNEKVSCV

`CC(C)COc1ccc(CN2C(=O)OC3(CCN(C)CC3)C2Cc2ccc(F)cc2)cc1.Cl` (racemic) [Example 69NLS75, 4-(4-Fluorobenzyl)-3-(4-isobutoxybenzyl)-8-methyl-1-oxa-3,8-diazaspiro[4.5]decan-2-one, hydrochloride] showed an EC50 (5-HT2A receptor; read-out: pEC50 or pIC50 (converted)) of over 3.16 µM, a 5HT2A % inhibition (5-HT2A receptor; compared to ritanserin) of 94% and an efficacy in brackets (5-HT2A receptor; inverse) of 94%.

`COc1ccc(CC(=O)N(Cc2ccc(C)cc2)C2CCN(C)CC2)cc1` [Example 50ELH27, 2-(4-Methoxyphenyl)-N-(4-methylbenzyl)-N-(1-methylpiperidin-4-yl)acetamide] gave an Emax (5-HT2A receptor; 120 h, read-out: Percent Efficacy, compared to ritanserin) of 108%, an IC50 (5-HT2A receptor; Table 3, read-out: pIC50 (converted)) of 2 nM and an EC50 (5-HT2A receptor; read-out: pEC50/pIC50 (converted)) of over 3.16 µM. The IC50 (5-HT2A receptor; inverse agonist, read-out: pEC50/pIC50 (converted)) was 1.58 nM.

For `CC(C)COc1ccc(CNC(=O)N(Cc2ccc(F)cc2)C2CCN(C)CC2)cc1` [N-(1-methylpiperidin-4-yl)-N-(4-fluorophenylmethyl)-N′-(4-(2-methylpropyloxy)phenylmethyl)carbamide], the safety and tolerability (healthy volunteers; 1 to 20 mg once daily, 14 days) was “safe and well tolerated”, the serious adverse events (healthy volunteers; 1 to 20 mg once daily, 14 days) was “no serious adverse events” and the “nature of adverse events” value (healthy volunteers; comparable across placebo and treated groups) was “mild to moderate”.
